According to patent publication US12246009B2, “Compositions and methods for treating neurodegenerative, myodegenerative, and lysosomal storage disorders” (GEORGETOWN UNIVERSITY, priority 2018, dated 2025):
Entries after “also recorded” stand apart in the source; their conditions may differ.

System: α-synuclein
Test: α-synuclein ELISA in α-synuclein-transfected B35 cells
Type: cell-based, rat
Method: Rat neuroblastoma B35 cells were grown in Dulbecco's Modified Eagle's Medium (DMEM) with 10% Fetal Bovine Serum (FBS) and 1% penicillin/streptomycin and incubated at 37° C. with 5% CO2. For the experiments, cells were transferred to 12-well plates (Cat. #150628, ThermoFisher, Waltham, MA) and grown to at least 70% confluence. Transient transfection was performed with 3 μg P301 L tau (Cat. #30145, Addgene) cDNA or 3 μg human α-synuclein cDNA using Fugene HD transfection reagent (Cat. #E2311, Promega, Madison WI) for 24 hours. Cells were treated with 1 mM, 100 μM, 10 μM, 1 μM, 0.1 μM, 0.01 μM, and 0.001 μM dissolved in DMSO or an equivalent 5 ul of DMSO for 5 hours. Cell culture media was collected and cells were harvested using sodium-tris, EDTA, NP-40 (STEN) buffer and centrifuged at 10,000×g for 20 minutes at 4′C and supernatant was collected. Cell viability was determined via lactate dehydrogenase assay (Cat. #88954, Thermofisher) and MTT assay (Cat. #V13154, Thermofisher). Protein was extracted by removing culture medium and adding 0.2 ml 1× STEN buffer (50 mM. Tris (pH 7.6), 150 mM NaCl, 2 mM EDTA, 0.2% NP-40, 0.2% BSA, 20 mM. PMSF and protease cocktail inhibitor) to cell layer and incubated on ice for 10 minutes. The bottom of the well was scraped and allowed to incubate on ice for an additional 10 minutes. Cell lysates were collected, stored at −80° C., and used for additional analyses.
To perform transient transfection of α-synuclein into the rat neuroblastoma B35 cells FuGene® HD Transfection Reagent (Promega Corporation, Madison, WI) was used. Cells were grown in 12-well dishes. […]
Human α-synuclein and p-tau ELISA were performed using 50 μl (1 μg/4 μl) of cell lysates detected with 50 μl primary antibody (3 h) and 100 μl anti-rabbit secondary antibody (30 min) at RT. α-Synuclein levels were measured using human specific ELISA (Invitrogen Inc., Carlsbad, CA) according to manufacturer's protocols. Tau was measured using specific tau at serine 396 according to manufacturer's protocol. […]

## Cc1cccc(-c2cc3nccc(Nc4cccc(O)c4)c3s2)c1 [BK40196]
Transfected B35 cells, 1 mM and 100 uM
  level of alpha-synuclein: significantly reduced

## Cc1cccc(-c2cc3nccc(N4CCOCC4)c3s2)c1 [BK40197, 4-(2-(m-Tolyl)thieno[3,2-b]pyridin-7-yl)morpholine]
α-synuclein-transfected B35 cells, 24 hour transfection
  α-synuclein level: does not reduce alpha-synuclein; also recorded: does not significantly reduce
